Data reported in patent publication US6835733B2, “Tropane linked benzofuran derivatives” (Eli Lilly and Company, priority 1999, dated 2004).
Where a name gives a salt, the structure may show the parent alone.

melting point: 201 to 204 °C (dec.)
Compound: COc1cccc2sc(C3=CC4CCC(C3)N4C[C@H](O)COc3cccc4occc34)cc12 (stereo partly shown) (as salt: oxalate)
